Source: patent US10689377B2 (Mirati Therapeutics, Inc., priority 2017, dated 2020)

What follows are compounds tested against KRas G12C (Homo sapiens, UniProt P01116, G12C) (assay: Cellular inhibition of KRas G12C measured by Phospho-ERK in NCI-H358 cells). Settings: pERK(Thr202/Tyr204) normalized with GAPDH, NCI-H358 cells, 3 hours; read-out: IC50.
Sequence of KRas G12C (P01116 1-188 isoform P01116-2 G12C): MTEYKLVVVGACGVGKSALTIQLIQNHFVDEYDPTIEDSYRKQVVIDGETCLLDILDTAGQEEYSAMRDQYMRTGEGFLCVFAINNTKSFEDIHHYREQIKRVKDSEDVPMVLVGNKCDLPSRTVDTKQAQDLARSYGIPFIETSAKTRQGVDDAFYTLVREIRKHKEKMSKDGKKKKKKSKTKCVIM
Assay type: cell-based
Outline: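 NCI-H358 cells were allowed to attach for 8-12 hours, then exposed to compounds for 3 hours at 0.5% DMSO final. After formaldehyde fixation and methanol permeabilization, phospho-ERK (Thr202/Tyr204) was detected by in-cell immunofluorescence and normalized to GAPDH; IC50 came from a 4-parameter fit of percent-of-DMSO values.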
C=CC(=O)N1CCN(c2nc(OC[C@@H]3CCCN3C)nc3c2CCN(c2ccc(F)c4ccccc24)C3)C[C@@H]1CC#N [Example 316, 2-((S)-1-acryloyl-4-(7-(4-fluoronaphthalen-1-yl)-2-(((S)-1-methylpyrrolidin-2-yl)methoxy)-5,6,7,8-tetrahydropyrido[3,4-d]pyrimidin-4-yl)piperazin-2-yl)acetonitrile] was tested, and the IC50 was 0.1 to 1000 nM. In the case of C=CC(=O)N1CCN(c2nc(OC[C@@H]3CCCN3C)nc3c2CCN(c2cc(O)cc4ccccc24)C3)C[C@@H]1CC#N [Example 317], the IC50 is reported as 0.1 to 1000 nM. With C=CC(=O)N1CCN(c2nc(OC[C@H]3CCCN3C)nc3c2CCN(c2ccc(F)c4ccccc24)C3)C[C@@H]1CC#N [Example 318, 2-[(2S)-4-[7-(4-fluoro-1-naphthyl)-2-[[(2R)-1-methylpyrrolidin-2-yl]methoxy]-6,8-dihydro-5H-pyrido[3,4-d]pyrimidin-4-yl]-1-prop-2-enoyl-piperazin-2-yl]acetonitrile] the IC50 was 0.1 to 1000 nM. Work on C=CC(=O)N1CCN(c2nc(OC[C@H]3CCCN3C)nc3c2CCN(c2cccc(Cl)c2C(F)(F)F)C3)C[C@@H]1CC#N [Example 319, 2-((S)-1-acryloyl-4-(7-(3-chloro-2-(trifluoromethyl)phenyl)-2-(((R)-1-methylpyrrolidin-2-yl)methoxy)-5,6,7,8-tetrahydropyrido[3,4-d]pyrimidin-4-yl)piperazin-2-yl)acetonitrile] yielded an IC50 of 0.1 to 1000 nM. For C=CC(=O)N1CCN(c2nc(OC[C@@H]3CCCN3C(C)C)nc3c2CCN(c2cccc4ccccc24)C3)C[C@@H]1CC#N [Example 320, 2-[(2S)-4-[2-[[(2S)-1-isopropylpyrrolidin-2-yl]methoxy]-7-(1-naphthyl)-6,8-dihydro-5H-pyrido[3,4-d]pyrimidin-4-yl]-1-prop-2-enoyl-piperazin-2-yl]acetonitrile], the IC50 was 0.1 to 1000 nM. In the case of C=CC(=O)N1CCN(c2nc(OC[C@@H]3CCCN3C)nc3c2CCN(c2c(O)cccc2F)C3)[C@@H](C)C1 [Example 321, 1-[(3S)-4-[7-(2-fluoro-6-hydroxy-phenyl)-2-[[(2S)-1-methylpyrrolidin-2-yl]methoxy]-6,8-dihydro-5H-pyrido[3,4-d]pyrimidin-4-yl]-3-methyl-piperazin-1-yl]prop-2-en-1-one], the IC50 is reported as > 1000 nM. Work on C=CC(=O)N1CCN(c2nc(OC[C@@H]3CCCN3CC)nc3c2CCN(c2ccc(F)c4ccccc24)C3)CC1CC#N (stereo partly drawn) [Example 322, 2-(1-acryloyl-4-(2-(((S)-1-ethylpyrrolidin-2-yl)methoxy)-7-(4-fluoronaphthalen-1-yl)-5,6,7,8-tetrahydropyrido[3,4-d]pyrimidin-4-yl)piperazin-2-yl)acetonitrile] yielded an IC50 of 0.1 to 1000 nM. For C=CC(=O)N1CCN(c2nc(OC[C@H]3C[C@H](O)CN3C)nc3c2CCN(c2cccc4ccccc24)C3)C[C@@H]1CC#N [Example 323, 2-[(2S)-4-[2-[[(2R,4S)-4-hydroxy-1-methyl-pyrrolidin-2-yl]methoxy]-7-(1-naphthyl)-6,8-dihydro-5H-pyrido[3,4-d]pyrimidin-4-yl]-1-prop-2-enoyl-piperazin-2-yl]acetonitrile], the IC50 was 0.1 to 1000 nM. C=CC(=O)N1CCN(c2nc(OC[C@@H]3CCCN3C)nc3c2CCN(c2cccc(OC)c2C)C3)C[C@@H]1CC#N [Example 324, 2-[(2S)-4-[7-(3-methoxy-2-methyl-phenyl)-2-[[(2S)-1-methylpyrrolidin-2-yl]methoxy]-6,8-dihydro-5H-pyrido[3,4-d]pyrimidin-4-yl]-1-prop-2-enoyl-piperazin-2-yl]acetonitrile] was tested, and the IC50 was 0.1 to 1000 nM. In the case of C=CC(=O)N1CCN(c2nc(OC[C@@H]3CCCN3C)nc3c2CCN(c2ccccc2C#N)C3)C[C@@H]1CC#N [Example 325, 2-[4-[(3S)-3-(cyanomethyl)-4-prop-2-enoyl-piperazin-1-yl]-2-[[(2S)-1-methylpyrrolidin-2-yl]methoxy]-6,8-dihydro-5H-pyrido[3,4-d]pyrimidin-7-yl]benzonitrile], the IC50 is reported as > 1000 nM. With C=CC(=O)N1CCN(c2nc(OC[C@@H]3CCCN3C)nc3c2CCN(c2cccc4ccc(C)cc24)C3)C[C@@H]1CC#N [Example 326, 2-((S)-1-acryloyl-4-(7-(7-methylnaphthalen-1-yl)-2-(((S)-1-methylpyrrolidin-2-yl)methoxy)-5,6,7,8-tetrahydropyrido[3,4-d]pyrimidin-4-yl)piperazin-2-yl)acetonitrile] the IC50 was 0.1 to 1000 nM. C=CC(=O)N1CCN(c2nc(OC[C@@H]3C[C@@H](OC)CN3C)nc3c2CCN(c2cccc4ccccc24)C3)C[C@@H]1CC#N [Example 327, 2-((S)-1-acryloyl-4-(2-(((2S,4R)-4-methoxy-1-methylpyrrolidin-2-yl)methoxy)-7-(naphthalen-1-yl)-5,6,7,8-tetrahydropyrido[3,4-d]pyrimidin-4-yl)piperazin-2-yl)acetonitrile] showed an IC50 of 0.1 to 1000 nM. Compound C=CC(=O)N1CCN(c2nc(OC[C@@H]3CCCN3C)nc3c2CCN(c2cccc(F)c2C(F)(F)F)C3)C[C@@H]1CC#N [Example 328] has an IC50 of 0.1 to 1000 nM. In the case of C=CC(=O)N1CCN(c2nc(OC[C@H]3CCCN3CCO)nc3c2CCN(c2cccc4ccccc24)C3)C[C@@H]1CC#N [Example 329, 2-[(2S)-4-[2-[[(2R)-1-(2-hydroxyethyl)pyrrolidin-2-yl]methoxy]-7-(1-naphthyl)-6,8-dihydro-5H-pyrido[3,4-d]pyrimidin-4-yl]-1-prop-2-enoyl-piperazin-2-yl]acetonitrile], the IC50 is reported as 0.1 to 1000 nM. C=CC(=O)N1CCN(c2nc(OC[C@@H]3CCCN3C)nc3c2CCN(c2cccc(OC)c2C(F)(F)F)C3)C[C@@H]1CC#N [Example 330, 2-[(2S)-4-[7-[3-methoxy-2-(trifluoromethyl)phenyl]-2-[[(2S)-1-methylpyrrolidin-2-yl]methoxy]-6,8-dihydro-5H-pyrido[3,4-d]pyrimidin-4-yl]-1-prop-2-enoyl-piperazin-2-yl]acetonitrile] gave an IC50 of 0.1 to 1000 nM. C=CC(=O)N1CCN(c2nc(OC[C@@H]3C[C@@H](OC)CN3C)nc3c2CCN(c2cccc(Cl)c2C(F)(F)F)C3)C[C@@H]1CC#N [Example 332, 2-[(2S)-4-[7-[3-chloro-2-(trifluoromethyl)phenyl]-2-[[(2S,4R)-4-methoxy-1-methyl-pyrrolidin-2-yl]methoxy]-6,8-dihydro-5H-pyrido[3,4-d]pyrimidin-4-yl]-1-prop-2-enoyl-piperazin-2-yl]acetonitrile] was tested, and the IC50 was 0.1 to 1000 nM. Compound C=CC(=O)N1CCN(c2nc(OC[C@@H]3CCCN3C)nc3c2CCN(c2cccc4ccc(F)cc24)C3)C[C@@H]1CC#N [Example 333, 2-[(2S)-4-[7-(7-fluoro-1-naphthyl)-2-[[(2S)-1-methylpyrrolidin-2-yl]methoxy]-6,8-dihydro-5H-pyrido[3,4-d]pyrimidin-4-yl]-1-prop-2-enoyl-piperazin-2-yl]acetonitrile] has an IC50 of 0.1 to 1000 nM. With C=CC(=O)N1CCN(c2nc(OC[C@H]3CCCN3CC)nc3c2CCN(c2cccc4ccccc24)C3)C[C@@H]1CC#N [Example 334, 2-[(2S)-4-[2-[[(2R)-1-ethylpyrrolidin-2-yl]methoxy]-7-(1-naphthyl)-6,8-dihydro-5H-pyrido[3,4-d]pyrimidin-4-yl]-1-prop-2-enoyl-piperazin-2-yl]acetonitrile] the IC50 was 0.1 to 1000 nM. In the case of C=CC(=O)N1CCN(c2nc(OC[C@@H]3C[C@@H](OC)CN3CC)nc3c2CCN(c2cccc(Cl)c2C(F)(F)F)C3)C[C@@H]1CC#N [Example 335, 2-[(2S)-4-[7-[3-chloro-2-(trifluoromethyl)phenyl]-2-[[(2S,4R)-1-ethyl-4-methoxy-pyrrolidin-2-yl]methoxy]-6,8-dihydro-5H-pyrido[3,4-d]pyrimidin-4-yl]-1-prop-2-enoyl-piperazin-2-yl]acetonitrile], the IC50 is reported as 0.1 to 1000 nM. For C=CC(=O)N1C[C@H](C)N(c2nc(OC[C@@H]3CCCN3C)nc3c2CCN(c2cc(O)cc4ccccc24)C3)C[C@H]1C [Example 336, 1-[(2R,5S)-4-[7-(3-hydroxy-1-naphthyl)-2-[[(2S)-1-methylpyrrolidin-2-yl]methoxy]-6,8-dihydro-5H-pyrido[3,4-d]pyrimidin-4-yl]-2,5-dimethyl-piperazin-1-yl]prop-2-en-1-one], the IC50 was 0.1 to 1000 nM. For C=CC(=O)N1CCN(c2nc(OC[C@@H]3CCCN3C)nc3c2CCN(c2cccc(Cl)c2CC)C3)C[C@@H]1CC#N [Example 337, 2-[(2S)-4-[7-(3-chloro-2-ethyl-phenyl)-2-[[(2S)-1-methylpyrrolidin-2-yl]methoxy]-6,8-dihydro-5H-pyrido[3,4-d]pyrimidin-4-yl]-1-prop-2-enoyl-piperazin-2-yl]acetonitrile], the IC50 was 0.1 to 1000 nM. C=CC(=O)N1CCN(c2nc(OC[C@@H]3CCCN3C)nc3c2CCN(c2cccc4cccc(F)c24)C3)C[C@@H]1CC#N [Example 338] gave an IC50 of 0.1 to 1000 nM. Compound C=CC(=O)N1CCN(c2nc(OC[C@@H]3CCCN3CC)nc3c2CCN(c2cccc(Cl)c2C(F)(F)F)C3)C[C@@H]1CC#N [Example 339, 2-((S)-1-acryloyl-4-(7-(3-chloro-2-(trifluoromethyl)phenyl)-2-(((S)-1-ethylpyrrolidin-2-yl)methoxy)-5,6,7,8-tetrahydropyrido[3,4-d]pyrimidin-4-yl)piperazin-2-yl)acetonitrile] has an IC50 of 0.1 to 1000 nM. In the case of C=CC(=O)N1CCN(c2nc(OC[C@@H]3CCCN3C)nc3c2CCN(c2cnccc2OC)C3)C[C@@H]1CC#N [Example 340, 2-((S)-1-acryloyl-4-(7-(4-methoxypyridin-3-yl)-2-(((S)-1-methylpyrrolidin-2-yl)methoxy)-5,6,7,8-tetrahydropyrido[3,4-d]pyrimidin-4-yl)piperazin-2-yl)acetonitrile], the IC50 is reported as > 1000 nM. C=CC(=O)N1CCN(c2nc(OC[C@@H]3CCCN3CCO)nc3c2CCN(c2cccc4ccccc24)C3)C[C@@H]1CC#N [Example 341, 2-((S)-1-acryloyl-4-(2-(((S)-1-(2-hydroxyethyl)pyrrolidin-2-yl)methoxy)-7-(naphthalen-1-yl)-5,6,7,8-tetrahydropyrido[3,4-d]pyrimidin-4-yl)piperazin-2-yl)acetonitrile] was tested, and the IC50 was 0.1 to 1000 nM.
